Measurements reported in patent publication US20250032488A1, “METHODS OF TREATMENT USING LOU064” (NOVARTIS AG, priority 2021, published 2025).
Like-named read-outs stand apart in the source and are kept apart here.

Legend:
[1] = LOU064 levels in blood, RPA study; format: in vivo, mice
Procedure: Female C57BI6 mice (Charles River, France), 8-10 weeks of age, were used. The back of the mice was shaved 24 hours prior to the skin injections. This allowed any potential irritation of the skin to resolve. The Arthus reaction was triggered two hours after compound dosing in the dose-response study or at the timepoints noted in the time-course study. To elicit the Arthus reaction, 50 μl of PBS (control site) or polyclonal rabbit anti-ovalbumin IgG at a concentration of 30 μg in PBS (C6534, Sigma) was injected i.d. into the dorsal skin. The intradermal injection was followed immediately by an i.v. injection of 200 μl ovalbumin (20 mg/kg) in saline (05450 Fluka). Three hours after the injection of the ovalbumin the mice were killed, bled for monitoring of the compound concentration and the spleens removed for BTK occupancy measurement. The thickness of the injected control and anti-ovalbumin IgG skin sites was measured using a digital caliper, and the thickness of the anti-ovalbumin IgG injected sites minus the saline control sites were then calculated for the mice in all treatment groups.
Blood samples were taken as denoted and compound measurement was performed. Blood samples were spiked with a structurally similar internal standard mixed with acetonitrile (4 volumes) and centrifuged at ˜ 4000 rpm (4° C.). Supernatant was then transferred into a microtiter plate. An aliquot of each sample was injected into an LC-MS/MS system for determination of concentrations of the parent molecule.

BTK = biological target: T1, BTK (Mus musculus, UniProt P35991); test: BTK occupancy in spleen and lung, RPA study; format: in vivo, mice; details: single dose 30 mg/kg, 3 hours after eliciting the Arthus reaction
T1 construct: each spleen was crushed and lysed in a GentleMACS; from tissue; host or cells: mouse spleen (BALB/c, C57Bl6) and lung (C57Bl6)
Procedure: For BTK occupancy in spleen, the experiment was performed as described in the PCA example. For lung BTK occupancy, lysates were prepared from complete lungs including tracheas after perfusing the organs with saline to remove blood in the same manner as for spleen (except that the lysis buffer volume was 500 μl). The lung lysates were then analyzed for free BTK in a separate ELISA. This consisted of a capture step with anti-BTK (Cell Signaling Technologies, #8547, carrier free). Then the captured BTK protein was incubated with 1 μM of covalent biotinylated BTK probe for 1 hour at room temperature. The BTK-bound biotinylated probe was detected by with a streptavidin-HRP conjugate (Cell Signaling Technologies, #3999, used at a dilution of 1:1′000) and a chemiluminescence substrate (Supersignal ELISA Pico, Thermo Scientific, #37070). The luminescence values were corrected for ELISA background reads from control samples measured in absence of BTK capture antibody for the total BTK ELISA and in absence of probe for the BTK-bound ELISA, respectively. The relative BTK occupancy was calculated as the ratio of free BTK (signal of the covalent biotinylated probe bound BTK) to total BTK for each sample: R=free BTK/total BTK. The individual Ri values were then normalized to the vehicle group and expressed as percent occupancy: (average of Ri vehicle group−Ri)/(average of Ri vehicle group)*100%.

LAD2 cells = test: FcER-induced mast cell degranulation in LAD2 cells; format: cell-based; details: Homo sapiens, n=3, read-out: IC50, IgE/FcER-induced mast cell degranulation (β-tryptase)
Excerpt: Rationale and method: The human mastocytosis cell line LAD2 expresses FcERI and upon crosslinking of the receptor the cells degranulate and release inflammatory mediators like β-tryptase and hexosaminidase (Wernersson et al. 2014, Immunology; 14 (7): 478-94). The assay involves 4-hydroxy-3-iodo-5-nitrophenylacetic acid (NIP) haptenized bovine serum albumin (BSA) and the NIP-specific chimeric IgE antibody JW8 (Neuberger, M.S. et al. (1985), Nature 314 (6008), pp 268-70. doi: 10.1038/314268a0). The LAD2 cells were sensitized with JW8 IgE antibody and then incubated with serial compound dilutions for 30 minutes at 37° C. Then degranulation was triggered by adding haptenized NIP-BSA to crosslink the FcER. After one hour, supernatants were collected and analyzed for B-tryptase levels.

[2] = test system: human primary skin-derived mast cells; test: Histamine release from skin-derived human mast cells; format: cell-based; details: Mast cell, n=2 donors
Procedure: Rationale and method: Skin tissue was used as a source of primary human tissue mast cells. Surgical skin discard samples were provided under informed consent and collected by the University Hospital Basel in accordance with the Swiss Human Research Act and approval of the responsible ethic committee (Ethikkommission Nordwest und Zentralschweiz). Skin tissue was dissociated and intact mast cells were prepared according to the protocol of Kulka and Metcalfe (Kulka et al. 2010, current protocols in Immunology; SUPPL. 90:1-11). The isolated mast cells were characterized phenotypically and used for a degranulation assay as described above ((Neuberger, M.S. et al. (1985), Nature 314 (6008), pp 268-70. doi: 10.1038/314268a0). The mast cells were sensitized with JW8 IgE antibody and then pre-incubated with serial compound dilutions for 30 minutes at 37° C. Then degranulation was triggered by adding haptenized NIP-BSA to crosslink the FcERI. After 30 minutes, supernatants were collected and analyzed for histamine with an HTRF-based immunoassay (Cisbio Bioassays).

[3] = test system: FccR1 mediated basophil activation; details: cited from earlier work
subjects with CSU = test: 52-week open label extension study in CSU: safety
Procedure: In a 52-week open label extension study to evaluate the long-term safety and tolerability of LOU064 in eligible subjects with CSU who participated in the Phase 2b study the dose used was 100 mg b.i.d.

[4] = 100 mg B.I.D., N = 100, interim cut off 31 Aug. 2020
[5] = ES, 100 mg b.i.d., N = 183, median 35.14 wks, listed as remibrutinib

T1 sequence (P35991 whole entry): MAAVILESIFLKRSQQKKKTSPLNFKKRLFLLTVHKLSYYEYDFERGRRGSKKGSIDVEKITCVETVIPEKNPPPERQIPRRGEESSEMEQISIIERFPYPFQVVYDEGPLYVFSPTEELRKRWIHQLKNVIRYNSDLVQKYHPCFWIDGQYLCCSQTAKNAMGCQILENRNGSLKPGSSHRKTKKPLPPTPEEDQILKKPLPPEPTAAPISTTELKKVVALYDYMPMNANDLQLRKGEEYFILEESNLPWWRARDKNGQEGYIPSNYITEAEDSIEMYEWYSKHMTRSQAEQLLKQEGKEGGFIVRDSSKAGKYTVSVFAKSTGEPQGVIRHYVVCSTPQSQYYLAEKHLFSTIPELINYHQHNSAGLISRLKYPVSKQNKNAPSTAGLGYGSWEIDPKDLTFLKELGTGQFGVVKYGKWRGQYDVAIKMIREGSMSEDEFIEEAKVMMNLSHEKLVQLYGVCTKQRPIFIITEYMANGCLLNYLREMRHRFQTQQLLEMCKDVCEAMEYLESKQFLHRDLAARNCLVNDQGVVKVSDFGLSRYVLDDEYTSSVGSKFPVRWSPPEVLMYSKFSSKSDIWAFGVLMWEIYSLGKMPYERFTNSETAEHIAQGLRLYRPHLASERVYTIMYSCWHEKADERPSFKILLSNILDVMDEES

C=CC(=O)N(C)CCOc1c(N)ncnc1-c1cc(F)cc(NC(=O)c2ccc(C3CC3)cc2F)c1C [LOU064, N-(3-(6-amino-5-(2-(N-methylacrylamido)ethoxy)pyrimidin-4-yl)-5-fluoro-2-methylphenyl)-4-cyclopropyl-2-fluorobenzamide]
concentration at 5 h ([1]; female, C57BI6, mouse, whole blood, oral, 3 mg/Kg single p.o., 5 hours after dosing): 2.04 nM | concentration at 5 h ([1]; female, C57BI6, mouse, whole blood, oral, 10 mg/Kg single p.o., 5 hours after dosing, Mean ± SD): 2.87 ± 0.58 nM | concentration at 5 h ([1]; female, C57BI6, mouse, whole blood, oral, 30 mg/Kg single p.o., 5 hours after dosing, Mean ± SD): 25.2 ± 20.9 nM | concentration at 5 h ([1]; female, C57BI6, mouse, whole blood, oral, 100 mg/Kg single p.o., 5 hours after dosing, Mean ± SD): 140 ± 63.9 nM | concentration at 5 h ([1]; female, C57BI6, mouse, whole blood, single oral dose of 30 mg/kg, 5 hours post-dose, Mean ± SD (n = 5)): 28.4 ± 18.2 nM | concentration at 8 h ([1]; female, C57BI6, mouse, whole blood, single oral dose of 30 mg/kg, 8 hours post-dose, Mean ± SD (n = 5)): 9.2 ± 6.7 nM | Concentration in blood ([1]; single oral dose of 30 mg/kg, 19 hours post-dose): Below LLOQ | BTK occupancy kinetic in spleen and lung compared to effect on skin swelling (BTK): very similar kinetic | IC50 (LAD2 cells): 7 nM | IC50 [2]: 16.5 nM | Trough level inhibition of CD63 ([3]; MAD, 10 mg q.d., last day of dosing): 80% | Inhibition of CD203c+ basophils ([3]; MAD, 200 mg b.i.d): 67% | Inhibition of CD203c+ basophils ([3]; MAD, 400 mg q.d.): 63% | Inhibition of blood basophil activation measured by CD63 expression ([3]; MAD, daily dose greater than or equal to 50 mg, day 1-12 and several days beyond): full inhibition | Trough inhibition of CD63 ([3]; MAD, greater than or equal to 100 mg q.d., last day of dosing): greater than 97% | Inhibition of CD203c+ basophil activation marker ([3]; SAD, 200 mg cohort, at 8h): up to 79.4% | Inhibition of basophil activation measured by CD63 ([3]; SAD, doses of 60 mg): > 89% | Inhibition of basophil activation measured by CD63 ([3]; SAD, higher doses, 24 h post dose): ~100% | Death (subjects with CSU; [4]): 0 n | Discontinued study due to an SAE(s) (subjects with CSU; [4]): 0 n | Discontinued study due to any AE(s) (subjects with CSU; [4]): 0 n | AE preferred term diarrhea (subjects with CSU; 100 mg b.i.d., N = 100 interim): 4% | AE preferred term dizziness (subjects with CSU; 100 mg b.i.d., N = 100 interim): 3% | AE preferred term gastroenteritis (subjects with CSU; 100 mg b.i.d., N = 100 interim): 3% | AE preferred term headache (subjects with CSU; 100 mg b.i.d., N = 100 interim): 6% | Bleeding events or events under SOC Blood and lymphatic system disorders (subjects with CSU; 100 mg b.i.d., N = 100 interim): no bleeding events | SOC Infections and infestations (subjects with CSU; 100 mg b.i.d., N = 100 interim): 14% | SOC Skin and subcutaneous tissue disorders (subjects with CSU; 100 mg b.i.d., N = 100 interim): 13% | Safety signal (subjects with CSU; 100 subjects, median exposure 17.86 weeks): No safety signal | ECG findings or QT of >500 ms (subjects with CSU; ES and CS, any patient): no significant ECG findings or QT of >500 ms | Deaths (subjects with CSU; ES, 100 mg b.i.d., N = 183): no deaths | Incidence of AESI bleeding (subjects with CSU; ES, 100 mg b.i.d., N = 183): 4.4% | Incidence of AESI cytopenias (subjects with CSU; ES, 100 mg b.i.d., N = 183): 0.5% | Incidence of AESI infections (subjects with CSU; ES, 100 mg b.i.d., N = 183): 23% | Skin and subcutaneous tissue disorders (AEs by primary system organ class) (subjects with CSU; ES, 100 mg b.i.d., N = 183, median 35.14 wks): 32 n | Discontinued study treatment due to AE(s) (subjects with CSU; [5]): 6 n | Headache (AEs by PT) (subjects with CSU; [5]): 6.6% | Infections and infestations (AEs by primary system organ class) (subjects with CSU; [5]): 23.0% | Patients with SAE(s) (subjects with CSU; [5]): 4 n | Skin and subcutaneous tissue disorders (AEs by primary system organ class) (subjects with CSU; [5]): 17.5% | Patients with newly occurring isolated ALT>3xULN (subjects with CSU; ES, normalized within 4 weeks): 1 patient
